Assay results reported in PMC12394658, “Discovery of Zharp1-163 as a dual inhibitor of ferroptosis and necroptosis for the treatment of inflammatory disorders and kidney injury” (Cell Death Discovery, 2025).

Key:
RIPK1 = RIPK1 (Homo sapiens, UniProt Q13546); assay: ADP-Glo kinase assay with recombinant RIPK1 ([…] ATP, MBP substrate); binding curve also shown in Fig. 4A; format: biochemical
BRSK2 = BRSK2 (Homo sapiens, UniProt Q8IWQ3); assay: biochemical; design: Kinase selectivity panel of 81 human kinases, ADP-Glo or HTRF, per cent inhibition at 1 uM
Experimental: (§1) We next sought to determine the binding affinity of Zharp1-163 for RIPK1 or RIPK3 via a binding assay (Fig. 4A). […] Further, we evaluated the selectivity of Zharp1-163 against a panel of 81 kinases (at 1000 nM). […] To elucidate the binding interactions between Zharp1-163 and RIPK1 kinase, we conducted molecular docking studies using the RIPK1 crystal structure (PDB ID: 4NEU). The predicted binding conformations and interaction patterns between Zharp1-163 and the RIPK1 kinase domain are presented in Fig. 4D, E. Like the cocrystallized ligand in the 4NEU crystal complex, Zharp1-163 was predicted to act as a typical type II kinase inhibitor, interacting with the DLG (Asp156-Leu157-Gly158)-out conformation of RIPK1 (Fig. 4D, E). The 2-aminoimidazo [1,2-a] pyridine moiety of Zharp1-163 formed hydrogen bonds with Met95 in the hinge region. Furthermore, the carboxylate group of Zharp1-163 established hydrogen bonds with Asp156 in the DLG-out region. Additionally, the saturated ring of Zharp1-163 was deeply embedded within the hydrophobic allosteric pocket formed by the residues Met66, Met67, Leu70, Val76, Leu129, and Leu159, which is created by the DLG-out conformation in RIPK1 (Fig. 4D, E).  Fig. 4 Zharp1-163 is a selective inhibitor of RIPK1 kinase activity. A Binding affinity curve of Zharp1-163 with RIPK1 and RIPK3. B In an in vitro kinase activity assay, recombinant RIPK1 was incubated with Zharp1-163, after which RIPK1 kinase activity was determined by measuring ATP levels via a luciferase reporter assay system. […] Kinases are marked with dots, where the color of each kinase indicates the level of inhibition achieved by Zharp1-163. D Predicted binding conformation of Zharp1-163. E Schematic representation of the interaction patterns between Zharp1-163 and the key residues in the binding pocket of the RIPK1 kinase. […] NIH3T3-RIPK3 cells were pretreated with the indicated concentrations of Zharp1-163 for 2 h and then treated with AP20187 (100 nM) for 24 h. Cell viability was determined by measuring ATP levels. […] HeLa-MLKL (1–190) cells were pretreated with the indicated concentrations of Zharp1-163 for 2 h and subsequently treated with AP20187 (100 nM) for 24 h. Cell viability was determined by measuring ATP levels. H Viability of IFNβ-primed MEFs at 18 h after stimulation with poly(I:C) plus z-VAD and treatment with Zharp1-163 (10 μM). I Effects of different concentrations of Zharp1-163 on WT or RIPK1 KO HT-29 cells. Cell viability was determined by measuring ATP levels. The data are presented as the mean ± SD of triplicate samples.

CDK18/CycY = CDK18/CycY (Homo sapiens, UniProt Q07002); assay: biochemical; design: Kinase selectivity panel of 81 human kinases, ADP-Glo or HTRF, per cent inhibition at 1 uM
Experimental: as §1

CHK1 = target: T1, CHK1 (Homo sapiens, UniProt O14757); assay: biochemical; design: Kinase selectivity panel of 81 human kinases, ADP-Glo or HTRF, per cent inhibition at 1 uM
T1 construct: gene CHEK1
Experimental: as §1

CK1γ2 = target: T2, CK1γ2 (Homo sapiens, UniProt P78368); assay: biochemical; design: Kinase selectivity panel of 81 human kinases, ADP-Glo or HTRF, per cent inhibition at 1 uM
T2 construct: gene CSNK1G2
T2 sequence (P78368 whole entry): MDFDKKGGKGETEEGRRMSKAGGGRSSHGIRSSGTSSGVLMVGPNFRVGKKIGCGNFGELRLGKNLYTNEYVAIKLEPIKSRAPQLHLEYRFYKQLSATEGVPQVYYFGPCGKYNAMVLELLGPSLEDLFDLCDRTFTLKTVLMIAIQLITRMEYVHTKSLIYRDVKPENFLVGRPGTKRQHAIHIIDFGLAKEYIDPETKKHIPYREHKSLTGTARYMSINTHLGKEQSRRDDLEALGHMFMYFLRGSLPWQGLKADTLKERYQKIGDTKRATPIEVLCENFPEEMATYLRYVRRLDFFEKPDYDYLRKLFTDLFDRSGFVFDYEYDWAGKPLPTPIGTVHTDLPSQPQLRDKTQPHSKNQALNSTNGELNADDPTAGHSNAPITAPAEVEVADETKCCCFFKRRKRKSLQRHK
Experimental: as §1

DAPK1 = DAPK1 (Homo sapiens, UniProt P53355); assay: biochemical; design: Kinase selectivity panel of 81 human kinases, ADP-Glo or HTRF, per cent inhibition at 1 uM
Experimental: as §1

HIPK1 = HIPK1 (Homo sapiens, UniProt Q86Z02); assay: biochemical; design: Kinase selectivity panel of 81 human kinases, ADP-Glo or HTRF, per cent inhibition at 1 uM
HIPK1, sequence (Q86Z02 whole entry): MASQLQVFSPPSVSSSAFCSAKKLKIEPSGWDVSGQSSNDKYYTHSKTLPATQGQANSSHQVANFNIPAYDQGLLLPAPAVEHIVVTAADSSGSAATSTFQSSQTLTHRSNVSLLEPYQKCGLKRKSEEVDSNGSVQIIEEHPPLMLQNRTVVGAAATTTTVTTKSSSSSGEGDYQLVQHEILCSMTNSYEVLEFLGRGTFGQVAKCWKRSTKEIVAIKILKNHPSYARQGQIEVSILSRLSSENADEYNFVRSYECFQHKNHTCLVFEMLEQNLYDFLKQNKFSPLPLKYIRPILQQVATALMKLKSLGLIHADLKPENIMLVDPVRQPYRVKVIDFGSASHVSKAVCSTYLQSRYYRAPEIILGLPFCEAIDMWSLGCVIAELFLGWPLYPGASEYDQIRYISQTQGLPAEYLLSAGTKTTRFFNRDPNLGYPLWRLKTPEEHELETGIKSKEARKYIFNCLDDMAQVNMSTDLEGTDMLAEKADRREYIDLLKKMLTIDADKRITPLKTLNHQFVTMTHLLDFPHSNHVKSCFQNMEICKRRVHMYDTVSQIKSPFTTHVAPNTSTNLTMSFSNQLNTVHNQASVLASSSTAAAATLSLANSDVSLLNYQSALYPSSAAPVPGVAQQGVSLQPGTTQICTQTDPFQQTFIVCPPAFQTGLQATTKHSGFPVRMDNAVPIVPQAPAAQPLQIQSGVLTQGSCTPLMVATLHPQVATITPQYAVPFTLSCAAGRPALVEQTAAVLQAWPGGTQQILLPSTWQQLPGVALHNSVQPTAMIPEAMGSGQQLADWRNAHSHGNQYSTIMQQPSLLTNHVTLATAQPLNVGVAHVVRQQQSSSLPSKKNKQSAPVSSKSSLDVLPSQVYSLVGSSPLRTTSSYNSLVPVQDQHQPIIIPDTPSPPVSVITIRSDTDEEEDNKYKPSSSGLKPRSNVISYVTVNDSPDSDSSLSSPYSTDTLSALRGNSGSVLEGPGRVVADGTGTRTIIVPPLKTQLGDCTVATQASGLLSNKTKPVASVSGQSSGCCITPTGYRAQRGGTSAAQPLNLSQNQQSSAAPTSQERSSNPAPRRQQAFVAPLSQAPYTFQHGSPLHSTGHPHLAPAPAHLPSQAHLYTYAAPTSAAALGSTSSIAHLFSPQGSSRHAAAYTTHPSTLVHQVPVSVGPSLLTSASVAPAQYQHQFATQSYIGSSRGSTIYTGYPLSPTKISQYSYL
Experimental: as §1

IRAK1 = IRAK1 (Homo sapiens, UniProt P51617); assay: biochemical; design: Kinase selectivity panel of 81 human kinases, ADP-Glo or HTRF, per cent inhibition at 1 uM
IRAK1, sequence (P51617 whole entry): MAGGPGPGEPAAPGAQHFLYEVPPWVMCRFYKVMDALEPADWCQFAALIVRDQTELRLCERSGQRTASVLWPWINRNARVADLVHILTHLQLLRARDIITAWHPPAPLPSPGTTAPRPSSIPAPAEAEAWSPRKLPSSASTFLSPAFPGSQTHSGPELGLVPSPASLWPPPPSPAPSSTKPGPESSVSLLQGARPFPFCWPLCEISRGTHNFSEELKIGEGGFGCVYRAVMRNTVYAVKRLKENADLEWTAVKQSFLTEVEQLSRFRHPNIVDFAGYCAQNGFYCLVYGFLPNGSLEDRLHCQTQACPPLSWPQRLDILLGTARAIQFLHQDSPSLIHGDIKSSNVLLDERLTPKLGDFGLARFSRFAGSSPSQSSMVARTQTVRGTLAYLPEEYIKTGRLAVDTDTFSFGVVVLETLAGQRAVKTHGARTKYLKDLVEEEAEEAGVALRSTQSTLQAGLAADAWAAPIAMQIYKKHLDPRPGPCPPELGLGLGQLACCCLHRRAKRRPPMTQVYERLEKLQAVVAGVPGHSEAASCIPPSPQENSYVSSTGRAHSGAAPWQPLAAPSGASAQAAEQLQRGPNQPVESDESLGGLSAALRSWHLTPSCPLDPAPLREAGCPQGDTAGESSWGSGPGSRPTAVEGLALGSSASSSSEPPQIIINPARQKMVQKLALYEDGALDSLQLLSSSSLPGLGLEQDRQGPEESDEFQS
Experimental: as §1

JAK3 = JAK3 (Homo sapiens, UniProt P52333); assay: biochemical; design: Kinase selectivity panel of 81 human kinases, ADP-Glo or HTRF, per cent inhibition at 1 uM
Experimental: as §1

PIK3CA = PIK3CA (Homo sapiens, UniProt P42336); assay: biochemical; design: Kinase selectivity panel of 81 human kinases, ADP-Glo or HTRF, per cent inhibition at 1 uM
PIK3CA, sequence (P42336 whole entry): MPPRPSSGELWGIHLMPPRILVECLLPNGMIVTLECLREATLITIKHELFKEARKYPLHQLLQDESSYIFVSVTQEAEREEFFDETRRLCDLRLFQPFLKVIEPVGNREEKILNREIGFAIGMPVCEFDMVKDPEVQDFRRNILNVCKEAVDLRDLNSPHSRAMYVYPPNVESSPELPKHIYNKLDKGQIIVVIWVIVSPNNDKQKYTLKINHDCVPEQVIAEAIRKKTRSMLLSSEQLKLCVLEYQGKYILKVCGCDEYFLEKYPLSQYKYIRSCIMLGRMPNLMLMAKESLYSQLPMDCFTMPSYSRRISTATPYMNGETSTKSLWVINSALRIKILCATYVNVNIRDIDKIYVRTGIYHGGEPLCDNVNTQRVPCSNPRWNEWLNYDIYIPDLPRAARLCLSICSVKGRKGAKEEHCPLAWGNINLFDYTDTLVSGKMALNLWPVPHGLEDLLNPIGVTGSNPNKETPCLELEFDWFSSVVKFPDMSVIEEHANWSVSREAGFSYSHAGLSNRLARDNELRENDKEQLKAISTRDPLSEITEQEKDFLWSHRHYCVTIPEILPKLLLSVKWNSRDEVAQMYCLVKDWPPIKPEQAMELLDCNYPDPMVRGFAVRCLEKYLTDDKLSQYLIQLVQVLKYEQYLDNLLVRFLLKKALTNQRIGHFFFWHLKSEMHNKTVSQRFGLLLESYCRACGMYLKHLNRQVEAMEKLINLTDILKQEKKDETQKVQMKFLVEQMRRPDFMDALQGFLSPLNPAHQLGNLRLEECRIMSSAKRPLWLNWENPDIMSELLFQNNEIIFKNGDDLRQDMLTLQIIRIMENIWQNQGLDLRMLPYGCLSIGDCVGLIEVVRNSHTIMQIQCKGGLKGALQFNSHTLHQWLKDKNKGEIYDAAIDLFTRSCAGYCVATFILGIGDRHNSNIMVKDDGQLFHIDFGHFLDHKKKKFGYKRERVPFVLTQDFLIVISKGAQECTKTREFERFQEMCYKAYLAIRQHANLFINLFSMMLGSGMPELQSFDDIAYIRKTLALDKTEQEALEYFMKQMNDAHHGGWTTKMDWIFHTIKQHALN
PIK3CA, sequence (P27986 whole entry partner): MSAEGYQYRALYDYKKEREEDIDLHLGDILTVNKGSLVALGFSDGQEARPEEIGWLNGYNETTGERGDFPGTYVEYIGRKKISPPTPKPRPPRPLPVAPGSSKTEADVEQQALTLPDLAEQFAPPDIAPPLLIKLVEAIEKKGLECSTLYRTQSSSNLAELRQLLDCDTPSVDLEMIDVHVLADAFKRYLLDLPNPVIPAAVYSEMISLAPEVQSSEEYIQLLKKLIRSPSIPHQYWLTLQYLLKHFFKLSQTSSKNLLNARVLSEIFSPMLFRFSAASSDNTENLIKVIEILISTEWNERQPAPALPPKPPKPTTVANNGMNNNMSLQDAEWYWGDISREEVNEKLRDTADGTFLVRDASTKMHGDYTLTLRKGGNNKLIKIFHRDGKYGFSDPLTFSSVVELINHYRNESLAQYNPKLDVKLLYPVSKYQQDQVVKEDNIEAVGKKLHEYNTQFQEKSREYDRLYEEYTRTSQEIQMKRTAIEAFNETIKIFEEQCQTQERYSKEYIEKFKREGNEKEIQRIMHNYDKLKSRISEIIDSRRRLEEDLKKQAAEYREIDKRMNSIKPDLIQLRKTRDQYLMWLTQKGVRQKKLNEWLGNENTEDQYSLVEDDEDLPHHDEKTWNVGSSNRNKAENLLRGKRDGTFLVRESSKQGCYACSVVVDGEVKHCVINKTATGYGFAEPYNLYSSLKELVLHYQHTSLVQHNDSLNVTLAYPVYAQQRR
Experimental: as §1

PIM1 = PIM1 (Homo sapiens, UniProt P11309); assay: biochemical; design: Kinase selectivity panel of 81 human kinases, ADP-Glo or HTRF, per cent inhibition at 1 uM
PIM1, sequence (P11309 whole entry): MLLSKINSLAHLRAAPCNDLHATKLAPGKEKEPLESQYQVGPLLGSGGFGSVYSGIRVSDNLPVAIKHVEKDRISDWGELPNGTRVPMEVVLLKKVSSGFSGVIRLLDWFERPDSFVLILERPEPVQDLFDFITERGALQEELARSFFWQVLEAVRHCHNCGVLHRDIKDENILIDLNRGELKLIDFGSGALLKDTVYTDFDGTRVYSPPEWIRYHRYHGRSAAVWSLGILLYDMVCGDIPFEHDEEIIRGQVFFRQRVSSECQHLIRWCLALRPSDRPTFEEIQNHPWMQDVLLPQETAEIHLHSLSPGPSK
Experimental: as §1

RIPK2 = RIPK2 (Homo sapiens, UniProt O43353); assay: biochemical; design: Kinase selectivity panel of 81 human kinases, ADP-Glo or HTRF, per cent inhibition at 1 uM
RIPK2, sequence (O43353 whole entry): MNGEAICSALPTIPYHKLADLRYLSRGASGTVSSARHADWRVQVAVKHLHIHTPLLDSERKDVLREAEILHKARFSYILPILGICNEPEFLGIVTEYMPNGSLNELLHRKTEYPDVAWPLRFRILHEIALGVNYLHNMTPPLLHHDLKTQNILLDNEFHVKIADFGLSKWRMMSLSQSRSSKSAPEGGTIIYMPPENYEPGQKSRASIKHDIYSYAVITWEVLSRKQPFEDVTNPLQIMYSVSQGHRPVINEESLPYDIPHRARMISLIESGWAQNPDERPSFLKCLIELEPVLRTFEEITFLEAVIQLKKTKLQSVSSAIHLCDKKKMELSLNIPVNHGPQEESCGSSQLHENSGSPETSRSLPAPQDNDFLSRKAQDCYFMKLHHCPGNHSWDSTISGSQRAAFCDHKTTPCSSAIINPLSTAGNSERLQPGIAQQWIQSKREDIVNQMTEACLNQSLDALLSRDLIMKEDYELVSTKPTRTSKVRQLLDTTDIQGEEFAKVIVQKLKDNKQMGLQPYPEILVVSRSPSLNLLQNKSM
Experimental: as §1

TIE2 = target: T3, TIE2 (Homo sapiens, UniProt Q02763); assay: biochemical; design: Kinase selectivity panel of 81 human kinases, ADP-Glo or HTRF, per cent inhibition at 1 uM
T3 construct: gene TEK
Experimental: as §1

TRKB = target: T4, TRKB (Homo sapiens, UniProt Q16620); assay: biochemical; design: Kinase selectivity panel of 81 human kinases, ADP-Glo or HTRF, per cent inhibition at 1 uM
T4 construct: gene NTRK2
Experimental: as §1

Nc1cn2cc(-c3cnc4c(c3)N(C(=O)OC3CCCCC3)CCO4)ccc2n1 [Zharp1-163]
IC50 (RIPK1): ~406 nM | inhibition at 1 µM (BRSK2; replicate Data1): -6.15% | inhibition at 1 µM (BRSK2; replicate Data2): -3.32% | inhibition at 1 µM (CDK18/CycY; replicate Data1): 4.89% | inhibition at 1 µM (CDK18/CycY; replicate Data2): -0.64% | inhibition at 1 µM (CHK1; replicate Data1): 16.8% | inhibition at 1 µM (CHK1; replicate Data2): 10.4% | inhibition at 1 µM (CK1γ2; replicate Data1): -3.03% | inhibition at 1 µM (CK1γ2; replicate Data2): 8.14% | inhibition at 1 µM (DAPK1; replicate Data1): 9.17% | inhibition at 1 µM (DAPK1; replicate Data2): -5.62% | inhibition at 1 µM (HIPK1; replicate Data1): 8.39% | inhibition at 1 µM (HIPK1; replicate Data2): -1.36% | inhibition at 1 µM (IRAK1; replicate Data1): 1.3% | inhibition at 1 µM (IRAK1; replicate Data2): -3.6% | inhibition at 1 µM (JAK3; replicate Data1): -1.37% | inhibition at 1 µM (JAK3; replicate Data2): 7.33% | inhibition at 1 µM (PIK3CA; replicate Data1): 37.1% | inhibition at 1 µM (PIK3CA; replicate Data2): 35.8% | inhibition at 1 µM (PIM1; replicate Data1): 3.88% | inhibition at 1 µM (PIM1; replicate Data2): 7.34% | inhibition at 1 µM (RIPK2; replicate Data1): -0.35% | inhibition at 1 µM (RIPK2; replicate Data2): -3.05% | inhibition at 1 µM (TIE2; replicate Data1): 11.9% | inhibition at 1 µM (TIE2; replicate Data2): 26.5% | inhibition at 1 µM (TRKB; replicate Data1): 61.4% | inhibition at 1 µM (TRKB; replicate Data2): 58.1%
